From ChEMBL document CHEMBL1201862, “PubChem BioAssay data set” (2004)
Activity calls are given as the source filed them.

Legend:
[1] = M. tuberculosis H37Rv growth inhibitors, H37Rv strain (AID 1626); format: functional
[2] = NIH-3T3 fibroblast cytotoxicity, dose response, cytotoxicity control, cell-based, fluorescence, Alamar Blue, secondary assay (AID 2327); format: functional;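 also: NIH-3T3 mouse fibroblasts cultured with fluconazole at 8 µg/mL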
[3] = target: T1, RNA-binding protein pos-1 (Caenorhabditis elegans, UniProt G5EF15); test: disruptors of C. elegans POS-1 RNA interaction – biochemical, fluorescence polarization, dose response (AID 1964);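 also: purified POS-1 fused to maltose binding protein made in E. coli; potency of compounds blocking POS-1 binding to fluorescent RNA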
T1 sequence (G5EF15 whole entry): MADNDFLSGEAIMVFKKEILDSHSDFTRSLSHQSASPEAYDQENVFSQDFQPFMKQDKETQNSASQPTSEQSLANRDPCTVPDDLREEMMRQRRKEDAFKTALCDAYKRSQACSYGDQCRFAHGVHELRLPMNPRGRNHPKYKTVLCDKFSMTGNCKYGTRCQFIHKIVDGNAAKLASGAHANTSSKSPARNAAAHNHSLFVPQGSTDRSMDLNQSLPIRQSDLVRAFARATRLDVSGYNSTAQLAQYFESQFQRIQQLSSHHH

[4] = target: T2, Zinc finger protein mex-5 (Caenorhabditis elegans, UniProt Q9XUB2); test: potency of MEX-5 RNA-binding blockers – biochemical, C. elegans, fluorescence polarization, dose response (AID 1960)
T2 sequence (Q9XUB2 whole entry): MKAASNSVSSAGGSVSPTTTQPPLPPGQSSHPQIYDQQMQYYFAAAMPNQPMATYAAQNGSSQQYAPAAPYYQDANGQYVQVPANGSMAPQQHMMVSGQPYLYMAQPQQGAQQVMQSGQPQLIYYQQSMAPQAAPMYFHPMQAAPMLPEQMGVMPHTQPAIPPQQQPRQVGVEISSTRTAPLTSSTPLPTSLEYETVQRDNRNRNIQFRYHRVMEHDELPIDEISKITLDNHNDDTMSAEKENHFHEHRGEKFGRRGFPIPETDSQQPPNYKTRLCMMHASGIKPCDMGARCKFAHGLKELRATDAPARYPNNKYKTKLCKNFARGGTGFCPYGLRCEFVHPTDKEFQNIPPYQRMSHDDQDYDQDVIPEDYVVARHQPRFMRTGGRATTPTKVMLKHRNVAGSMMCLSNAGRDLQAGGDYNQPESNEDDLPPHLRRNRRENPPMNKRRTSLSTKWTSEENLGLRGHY

[5] = fluconazole-exposed Candida albicans growth modulators – fluorescence, retest, confirmation (AID 2467); format: functional, cell-based
[6] = viability of PTEN-deleted HCT116 cells – cell-based, HCT116 PTEN knockout, dose response (AID 1047); format: functional;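 also: HCT116 colon tumor cells with PTEN knocked out; cells exposed to compound for 60 hours before readout; potency for loss of cell viability measured by luminescence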
[7] = target: T3, Serine/threonine-protein phosphatase (Candida dubliniensis (strain CD36 / CBS 7987 / NCPF 3949 / NRRLY-17841) (Yeast), UniProt B9W6M3); test: blockers of CaCl2-induced CDRE-lacZ signaling – S. cerevisiae, luminescence, secondary, dose response (AID 2388); format: functional, cell-based;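 also: yeast reporter cells carrying a calcineurin-responsive lacZ construct stimulated with calcium chloride; luminescent beta-galactosidase reporter signal in whole cells rather than isolated phosphatase activity; potency for inhibition where a drop in reporter signal means calcineurin blockade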
T3 sequence (B9W6M3 whole entry): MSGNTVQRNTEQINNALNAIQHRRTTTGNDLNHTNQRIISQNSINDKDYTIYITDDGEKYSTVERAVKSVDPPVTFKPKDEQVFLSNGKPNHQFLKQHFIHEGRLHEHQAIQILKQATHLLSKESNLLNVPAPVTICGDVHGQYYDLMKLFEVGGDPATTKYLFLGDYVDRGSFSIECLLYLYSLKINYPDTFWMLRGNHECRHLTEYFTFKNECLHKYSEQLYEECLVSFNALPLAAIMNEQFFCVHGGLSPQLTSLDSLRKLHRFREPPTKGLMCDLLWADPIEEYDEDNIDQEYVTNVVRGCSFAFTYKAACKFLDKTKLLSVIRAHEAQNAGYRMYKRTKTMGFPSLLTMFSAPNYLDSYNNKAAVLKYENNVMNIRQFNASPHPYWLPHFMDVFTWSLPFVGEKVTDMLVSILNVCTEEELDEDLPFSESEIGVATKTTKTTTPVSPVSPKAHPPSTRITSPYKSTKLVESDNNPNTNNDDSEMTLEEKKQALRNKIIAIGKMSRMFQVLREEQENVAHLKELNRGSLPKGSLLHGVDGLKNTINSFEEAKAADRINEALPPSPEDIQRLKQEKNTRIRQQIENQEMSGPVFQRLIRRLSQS

[8] = target: Protein-tyrosine kinase 2-beta (Homo sapiens, UniProt Q14289);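 also: potency of inhibitors of PYK2 kinase phosphorylation of poly-GT substrate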
[9] = viability of HCT116 lacking mutant beta-catenin – cell-based, human colon tumor, dose response (AID 1045); format: functional;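 also: HCT116 colon tumor cells with beta catenin knocked out; cells exposed to compound for 60 hours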
[10] = target: ATP-dependent molecular chaperone HSP82 (Candida albicans (strain WO-1) (Yeast), UniProt C4YTQ8); test: steroid-induced GRE reporter decrease in yeast – S. cerevisiae, luminescence, Hsp90 inhibitor project, dose response (AID 2400); format: functional, cell-based;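 also: beta-galactosidase luminescence from glucocorticoid response element reporter as proxy for Hsp90 function; inhibitor potency where signal loss means Hsp90 inhibition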
[11] = target: 26S proteasome non-ATPase regulatory subunit 14 (Homo sapiens, UniProt O00487); test: inhibition of proteasome subunit RPN11 – biochemical, fluorescence polarization, uHTS hits, confirmation (AID 602368); format: functional
[12] = target: 72 kDa type IV collagenase (Homo sapiens, UniProt P08253); test: Dose Response validation of uHTS RPN11 inhibitor hits using a MMP-2 Fluorescence assay.; format: functional
[13] = target: Prothrombin (Bos taurus, UniProt P00735); test: thrombin protease inhibitors – biochemical, fluorescence polarization, uHTS hits, dose response (AID 602369); format: functional
[14] = target: T4, Estrogen receptor (Homo sapiens, UniProt P03372); test: blockers of SRC-3 recruitment to ERα – biochemical, ELISA, streptavidin-HRP readout, orthogonal assay, confirmation (AID 1079)
T4 sequence (P03372 whole entry): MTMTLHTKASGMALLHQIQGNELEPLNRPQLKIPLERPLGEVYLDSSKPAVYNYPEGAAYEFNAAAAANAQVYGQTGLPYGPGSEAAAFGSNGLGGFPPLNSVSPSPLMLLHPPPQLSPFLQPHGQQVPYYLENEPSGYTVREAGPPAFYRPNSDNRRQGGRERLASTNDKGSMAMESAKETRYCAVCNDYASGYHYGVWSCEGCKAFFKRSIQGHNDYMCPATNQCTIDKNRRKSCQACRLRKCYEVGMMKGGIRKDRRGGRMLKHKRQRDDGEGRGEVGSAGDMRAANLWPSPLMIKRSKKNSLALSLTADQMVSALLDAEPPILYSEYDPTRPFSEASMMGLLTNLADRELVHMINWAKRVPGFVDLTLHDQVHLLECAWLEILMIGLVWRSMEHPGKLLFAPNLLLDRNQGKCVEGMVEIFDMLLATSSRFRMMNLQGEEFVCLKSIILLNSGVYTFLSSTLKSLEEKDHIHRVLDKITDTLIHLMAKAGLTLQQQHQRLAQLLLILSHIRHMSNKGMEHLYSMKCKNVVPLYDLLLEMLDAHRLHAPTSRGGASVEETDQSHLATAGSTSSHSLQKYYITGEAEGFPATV

[15] = target: Estrogen receptor beta (Homo sapiens, UniProt Q92731); test: blockers of SRC-3 recruitment to ERβ – biochemical, ELISA, streptavidin-HRP readout, orthogonal assay, confirmation (AID 1060)
[16] = target: Bcl-2-like protein 10 (Homo sapiens, UniProt Q9HD36); test: Concentration-response of Bcl-B inhibitors by biochemical FP with TR3 (AID 1243); format: functional
[17] = target: Aspartyl aminopeptidase (Plasmodium falciparum 3D7, UniProt Q8I2J3); test: Counterscreen for inhibitors of M1 and M17 aminopeptidases: QFRET-based biochemical high throughput dose response assay for inhibitors of the Plasmodium falciparum M18 Aspartyl Aminopeptidase (PFM18AAP). [Related PubChem assays: 1619 (Screening assay (M17LAP inhibitors).), 1445 (Screening assay (M1AAP inhibitors).)]
[18] = target: T5, Aminopeptidase N (Plasmodium falciparum FcB1/Columbia, UniProt O96935); test: malaria alanyl aminopeptidase activity blockers – biochemical, fluorogenic H-Leu-NHMec substrate, 1536-well (AID 1445); set-up: species or system Plasmodium falciparum 3D7, 3D7
T5 sequence (O96935 whole entry): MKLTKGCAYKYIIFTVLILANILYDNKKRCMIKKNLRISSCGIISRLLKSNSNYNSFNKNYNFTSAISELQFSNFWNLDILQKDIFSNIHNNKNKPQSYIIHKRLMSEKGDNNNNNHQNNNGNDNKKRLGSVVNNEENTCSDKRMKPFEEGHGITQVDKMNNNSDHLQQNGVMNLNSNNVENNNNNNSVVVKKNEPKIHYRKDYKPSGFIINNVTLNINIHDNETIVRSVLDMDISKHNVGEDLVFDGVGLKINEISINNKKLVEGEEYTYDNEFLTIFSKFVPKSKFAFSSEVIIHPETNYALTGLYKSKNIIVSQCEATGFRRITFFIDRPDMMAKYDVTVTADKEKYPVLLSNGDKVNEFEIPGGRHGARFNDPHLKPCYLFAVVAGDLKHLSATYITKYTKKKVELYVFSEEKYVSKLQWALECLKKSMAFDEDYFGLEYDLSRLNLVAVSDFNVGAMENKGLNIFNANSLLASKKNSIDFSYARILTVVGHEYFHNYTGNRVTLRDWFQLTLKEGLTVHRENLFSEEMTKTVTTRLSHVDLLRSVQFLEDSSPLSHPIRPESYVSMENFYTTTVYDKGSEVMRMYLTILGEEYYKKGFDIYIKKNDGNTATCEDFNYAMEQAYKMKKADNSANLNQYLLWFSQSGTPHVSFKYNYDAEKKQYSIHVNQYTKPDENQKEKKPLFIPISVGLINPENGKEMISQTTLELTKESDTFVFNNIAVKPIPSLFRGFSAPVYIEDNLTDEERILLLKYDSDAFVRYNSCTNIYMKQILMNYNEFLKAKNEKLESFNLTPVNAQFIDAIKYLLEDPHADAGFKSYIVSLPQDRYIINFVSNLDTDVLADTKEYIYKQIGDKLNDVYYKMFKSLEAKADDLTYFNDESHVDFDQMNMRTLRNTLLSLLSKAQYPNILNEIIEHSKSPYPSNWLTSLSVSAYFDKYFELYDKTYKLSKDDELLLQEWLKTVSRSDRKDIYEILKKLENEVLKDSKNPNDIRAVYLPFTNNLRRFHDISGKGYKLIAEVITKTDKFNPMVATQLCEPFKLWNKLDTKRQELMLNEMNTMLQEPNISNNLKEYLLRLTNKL

[19] = target: Procathepsin L (Homo sapiens, UniProt P07711); test: CTSL1 protease inhibition – biochemical, QFRET, 1536-well, counter-screen for M1/M17 aminopeptidase inhibitor project, dose response (AID 2214)
Sequence of Procathepsin L (P07711 whole entry): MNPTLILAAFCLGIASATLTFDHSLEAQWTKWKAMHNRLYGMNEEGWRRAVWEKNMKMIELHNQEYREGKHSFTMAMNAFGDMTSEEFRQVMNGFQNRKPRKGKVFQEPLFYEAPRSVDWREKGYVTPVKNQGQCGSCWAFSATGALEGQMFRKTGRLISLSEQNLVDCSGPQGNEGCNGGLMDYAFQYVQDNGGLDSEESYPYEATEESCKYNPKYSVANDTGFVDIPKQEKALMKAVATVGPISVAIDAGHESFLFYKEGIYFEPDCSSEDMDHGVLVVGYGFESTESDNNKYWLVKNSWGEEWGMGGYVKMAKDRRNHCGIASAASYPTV

Sequence of Aspartyl aminopeptidase (Q8I2J3 whole entry): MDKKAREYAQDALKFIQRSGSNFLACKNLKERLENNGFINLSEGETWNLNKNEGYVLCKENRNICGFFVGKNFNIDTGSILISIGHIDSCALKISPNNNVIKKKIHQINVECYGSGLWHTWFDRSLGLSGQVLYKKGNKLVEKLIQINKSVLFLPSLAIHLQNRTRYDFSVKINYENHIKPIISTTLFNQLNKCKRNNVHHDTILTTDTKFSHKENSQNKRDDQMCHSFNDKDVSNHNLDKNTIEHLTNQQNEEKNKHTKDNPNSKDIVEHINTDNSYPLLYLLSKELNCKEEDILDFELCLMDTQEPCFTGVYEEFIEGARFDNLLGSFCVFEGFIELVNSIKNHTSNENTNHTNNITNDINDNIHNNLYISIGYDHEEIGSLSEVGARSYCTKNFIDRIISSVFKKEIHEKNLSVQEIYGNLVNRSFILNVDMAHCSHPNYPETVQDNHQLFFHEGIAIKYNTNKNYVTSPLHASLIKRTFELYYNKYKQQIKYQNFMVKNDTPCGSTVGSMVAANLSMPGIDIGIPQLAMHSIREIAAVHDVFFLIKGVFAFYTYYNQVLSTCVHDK
Sequence of Protein-tyrosine kinase 2-beta (Q14289 whole entry): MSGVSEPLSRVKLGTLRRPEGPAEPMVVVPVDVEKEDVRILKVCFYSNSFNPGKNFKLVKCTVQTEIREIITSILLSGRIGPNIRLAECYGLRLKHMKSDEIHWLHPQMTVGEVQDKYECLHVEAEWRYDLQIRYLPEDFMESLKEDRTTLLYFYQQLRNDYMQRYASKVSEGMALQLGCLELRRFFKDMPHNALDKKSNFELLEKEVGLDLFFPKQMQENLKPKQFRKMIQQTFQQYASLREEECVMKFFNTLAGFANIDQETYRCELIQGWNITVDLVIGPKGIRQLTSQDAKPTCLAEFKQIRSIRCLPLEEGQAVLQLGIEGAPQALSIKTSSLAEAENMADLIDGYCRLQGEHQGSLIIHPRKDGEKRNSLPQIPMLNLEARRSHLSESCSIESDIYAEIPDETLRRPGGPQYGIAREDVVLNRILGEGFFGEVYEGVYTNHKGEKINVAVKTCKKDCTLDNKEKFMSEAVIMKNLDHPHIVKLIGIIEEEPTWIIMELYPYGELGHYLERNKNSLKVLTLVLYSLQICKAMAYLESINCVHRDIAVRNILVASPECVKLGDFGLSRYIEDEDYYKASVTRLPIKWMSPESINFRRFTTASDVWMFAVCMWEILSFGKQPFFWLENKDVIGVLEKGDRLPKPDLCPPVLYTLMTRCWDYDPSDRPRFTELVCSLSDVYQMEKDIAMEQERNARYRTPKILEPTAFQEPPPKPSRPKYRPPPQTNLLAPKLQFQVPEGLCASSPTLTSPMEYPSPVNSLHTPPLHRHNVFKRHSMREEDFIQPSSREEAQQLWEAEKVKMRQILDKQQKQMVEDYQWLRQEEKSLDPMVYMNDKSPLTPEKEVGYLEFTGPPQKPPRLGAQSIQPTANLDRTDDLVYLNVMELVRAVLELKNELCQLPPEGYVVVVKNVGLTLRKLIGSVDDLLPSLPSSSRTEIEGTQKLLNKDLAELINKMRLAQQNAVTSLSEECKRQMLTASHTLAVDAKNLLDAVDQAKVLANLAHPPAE
Sequence of Estrogen receptor beta (Q92731 whole entry): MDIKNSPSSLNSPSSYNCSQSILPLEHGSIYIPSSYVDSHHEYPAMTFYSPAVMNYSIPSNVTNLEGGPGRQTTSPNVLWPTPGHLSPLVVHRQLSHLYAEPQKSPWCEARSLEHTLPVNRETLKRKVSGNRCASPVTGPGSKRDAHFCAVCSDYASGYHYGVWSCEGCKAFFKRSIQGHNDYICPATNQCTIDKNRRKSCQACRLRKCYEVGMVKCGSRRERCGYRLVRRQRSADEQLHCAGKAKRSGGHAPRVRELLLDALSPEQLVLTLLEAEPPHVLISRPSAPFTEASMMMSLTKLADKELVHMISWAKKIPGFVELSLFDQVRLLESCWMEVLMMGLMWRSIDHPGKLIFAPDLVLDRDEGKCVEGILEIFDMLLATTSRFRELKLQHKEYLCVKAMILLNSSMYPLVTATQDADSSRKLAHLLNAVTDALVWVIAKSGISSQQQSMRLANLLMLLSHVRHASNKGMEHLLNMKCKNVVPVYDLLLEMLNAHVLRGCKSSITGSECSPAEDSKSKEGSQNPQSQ
Sequence of Bcl-2-like protein 10 (Q9HD36 whole entry): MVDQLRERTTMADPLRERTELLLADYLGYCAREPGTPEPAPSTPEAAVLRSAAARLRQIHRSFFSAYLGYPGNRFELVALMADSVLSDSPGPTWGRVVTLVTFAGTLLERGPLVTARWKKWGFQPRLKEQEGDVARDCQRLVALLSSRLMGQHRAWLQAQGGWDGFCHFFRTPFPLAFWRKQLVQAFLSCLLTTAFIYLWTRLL
Sequence of 72 kDa type IV collagenase (P08253 whole entry): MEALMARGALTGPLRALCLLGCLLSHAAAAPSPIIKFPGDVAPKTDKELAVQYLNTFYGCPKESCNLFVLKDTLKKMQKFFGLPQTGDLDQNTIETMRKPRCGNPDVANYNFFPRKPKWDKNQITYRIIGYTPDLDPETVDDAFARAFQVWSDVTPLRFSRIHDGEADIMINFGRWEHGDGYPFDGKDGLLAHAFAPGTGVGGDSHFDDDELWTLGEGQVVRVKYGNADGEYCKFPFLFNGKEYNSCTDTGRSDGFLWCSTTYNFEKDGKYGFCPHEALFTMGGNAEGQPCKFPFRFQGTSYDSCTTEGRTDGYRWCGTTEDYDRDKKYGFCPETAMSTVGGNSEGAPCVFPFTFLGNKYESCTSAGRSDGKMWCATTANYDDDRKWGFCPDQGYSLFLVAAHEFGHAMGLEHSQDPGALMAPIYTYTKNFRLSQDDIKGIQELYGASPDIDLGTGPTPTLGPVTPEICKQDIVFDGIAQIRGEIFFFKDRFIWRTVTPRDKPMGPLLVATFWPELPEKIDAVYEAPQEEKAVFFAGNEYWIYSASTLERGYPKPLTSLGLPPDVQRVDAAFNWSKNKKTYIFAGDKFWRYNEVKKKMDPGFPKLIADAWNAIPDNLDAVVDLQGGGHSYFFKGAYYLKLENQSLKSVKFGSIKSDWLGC
Sequence of 26S proteasome non-ATPase regulatory subunit 14 (O00487 whole entry): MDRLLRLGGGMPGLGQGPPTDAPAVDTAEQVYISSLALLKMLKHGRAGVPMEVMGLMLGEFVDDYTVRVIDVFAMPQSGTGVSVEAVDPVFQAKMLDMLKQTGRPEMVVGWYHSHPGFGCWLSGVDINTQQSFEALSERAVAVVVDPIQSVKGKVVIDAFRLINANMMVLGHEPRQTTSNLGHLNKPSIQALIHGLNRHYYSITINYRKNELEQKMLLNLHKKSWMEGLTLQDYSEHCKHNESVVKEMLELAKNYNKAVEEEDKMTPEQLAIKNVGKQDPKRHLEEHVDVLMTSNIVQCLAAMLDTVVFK
Sequence of ATP-dependent molecular chaperone HSP82 (C4YTQ8 whole entry): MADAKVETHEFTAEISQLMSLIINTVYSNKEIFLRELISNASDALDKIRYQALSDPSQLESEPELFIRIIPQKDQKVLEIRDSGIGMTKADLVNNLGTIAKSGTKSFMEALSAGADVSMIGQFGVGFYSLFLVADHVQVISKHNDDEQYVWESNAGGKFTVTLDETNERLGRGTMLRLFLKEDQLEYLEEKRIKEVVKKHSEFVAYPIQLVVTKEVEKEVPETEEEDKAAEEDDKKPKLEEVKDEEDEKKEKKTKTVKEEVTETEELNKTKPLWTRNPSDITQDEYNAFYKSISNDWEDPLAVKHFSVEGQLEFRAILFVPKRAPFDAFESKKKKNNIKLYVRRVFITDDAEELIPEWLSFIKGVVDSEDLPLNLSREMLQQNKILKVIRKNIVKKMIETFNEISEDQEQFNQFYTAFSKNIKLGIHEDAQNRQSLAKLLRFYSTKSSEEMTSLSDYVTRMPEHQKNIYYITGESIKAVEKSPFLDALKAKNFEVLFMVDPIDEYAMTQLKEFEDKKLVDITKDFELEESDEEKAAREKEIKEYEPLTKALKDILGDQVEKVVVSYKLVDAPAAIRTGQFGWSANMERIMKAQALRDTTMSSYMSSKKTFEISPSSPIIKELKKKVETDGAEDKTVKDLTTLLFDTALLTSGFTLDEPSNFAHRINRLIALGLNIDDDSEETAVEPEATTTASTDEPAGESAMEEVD

Q: Which IC50 [1] does the source give for CCOC(=O)c1ccc(NC(=O)c2nnc(O)c3ccccc23)cc1 here?
A: > 100 µM (active)

Q: With COC(=O)c1ccc(COc2ccc(/C=C(\C#N)c3nc4ccccc4[nH]3)cc2OC)o1 as the compound, how does the EC50 [2] read?
A: > 160 µM (inconclusive)

Q: What about the EC50 [3] of the same compound?
A: > 300 µM (not active)

Q: And the EC50 [4]?
A: > 300 µM (not active)

Q: What about the EC50 [5] of the same compound?
A: 3.83 µM (active)

Q: And the EC50 [6]?
A: 79.7 µM (active)

Q: And the EC50 [7]?
A: > 180 µM (inactive)

Q: And the IC50 [8]?
A: > 69.5 µM (not active)

Q: What about the EC50 [9] of the same compound?
A: 88.4 µM (active)

Q: What about the EC50 [10] of the same compound?
A: > 160 µM (inactive)

Q: What about the IC50 [11] of the same compound?
A: 4.93 µM (active)

Q: And the IC50 [12]?
A: > 100 µM (inactive)

Q: And the IC50 [13]?
A: 11.4 µM (active)

Q: Which results are given for N#Cc1ccccc1N1CCN(C(=O)CCCCCn2c(=S)[nH]c3ccccc3c2=O)CC1?
A: IC50 [14]: 0.09 µM (not active); IC50 [15]: 0.957 µM (not active)

Q: Which EC50 [16] does the source give for Cc1ccc(C)n1-c1cc(C(=O)O)cc(C(=O)O)c1 here?
A: 0.54 µM (active)

Q: With O=C(NCCC1=CCCCC1)C1CCN(S(=O)(=O)c2ccc(Br)s2)CC1 as the compound, how does the IC50 [17] read?
A: > 73.5 µM (not active)

Q: And the IC50 [18]?
A: 13.2 µM (active)

Q: What about the IC50 [19] of the same compound?
A: > 59.6 µM (not active)
